In patent publication US8802597B2, “Herbicidal pyrimidines” (E I du Pont de Nemours and Company, priority 2003, dated 2014):

Columns and labels:
Assay type in all cases: in vivo
[1] = test system: blackgrass (Alopecurus myosuroides); test: Test B postemergence; conditions: scale 0 to 100 (0 no effect, 100 complete control)
In short: (§1)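 Greenhouse whole-plant test; surfactant-containing non-phytotoxic solvent formulation; pre- and postemergence applications made simultaneously; post plants 2–18 cm, 1- to 4-leaf; visual scoring at 13–15 days on 0–100 scale relative to controls.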

wild oat (Avena fatua) = test: Test B postemergence; conditions: scale 0 to 100 (0 no effect, 100 complete control)
In short: as §1

[2] = test system: cocklebur (Xanthium strumarium); test: Test B pre/postemergence; conditions: for Cocklebur plant response rating: Postemergence; for Plant response rating, Cocklebur: Preemergence
In short: as §1

[3] = test system: wheat (Triticum aestivum); test: Test B pre/postemergence; conditions: for Wheat plant response rating: Postemergence; for Plant response rating, Wheat: Preemergence
In short: as §1

[4] = test system: lambsquarters (Chenopodium album); test: Test B pre/postemergence; conditions: for Lambsquarters plant response rating: Postemergence; for Plant response rating, Lambsquarters: Preemergence
In short: as §1

[5] = test system: morningglory (Ipomoea coccinea); test: Test B pre/postemergence; conditions: for Morningglory plant response rating: Postemergence; for Plant response rating, Morningglory: Preemergence
In short: as §1

[6] = test system: pigweed (Amaranthus retroflexus); test: Test B pre/postemergence; conditions: for Pigweed plant response rating: Postemergence; for Plant response rating, Pigweed: Preemergence
In short: as §1

[7] = test system: crabgrass (Digitaria sanguinalis); test: Test B pre/postemergence; conditions: for Crabgrass plant response rating: Postemergence; for Plant response rating, Crabgrass: Preemergence
In short: as §1

[8] = test system: giant foxtail (Setaria faberii); test: Test B pre/postemergence; conditions: for Foxtail, Giant plant response rating: Postemergence; for Plant response rating, Foxtail, Giant: Preemergence
In short: as §1

[9] = test system: Surinam grass (Brachiaria decumbens); test: Test B pre/postemergence; conditions: for Surinam Grass plant response rating: Postemergence; for Plant response rating, Surinam Grass: Preemergence
In short: as §1

[10] = test system: barnyardgrass (Echinochloa crus-galli); test: Test B pre/postemergence; conditions: for Barnyardgrass plant response rating: Postemergence; for Plant response rating, Barnyardgrass: Preemergence
In short: as §1

corn (Zea mays) = test: Test B pre/postemergence; conditions: for Corn plant response rating: Postemergence; for Plant response rating, Corn: Preemergence
In short: as §1

[11] = test system: velvetleaf (Abutilon theophrasti); test: Test B pre/postemergence; conditions: for Velvetleaf plant response rating: Postemergence; for Plant response rating, Velvetleaf: Preemergence
In short: as §1

[12] = test system: umbrella sedge (Cyperus difformis); test: Test B flooded paddy test; conditions: Flood, scale 0 to 100
In short: (§2)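 Visual injury scoring (0 = no effect, 100 = complete control) versus controls made 13 to 15 days after treatment in the greenhouse. Test species were grown in flooded paddy to the 2-leaf stage: rice, barnyardgrass, umbrella sedge, duck salad.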

[13] = test system: duck salad (Heteranthera limosa); test: Test B flooded paddy test; conditions: Flood, scale 0 to 100
In short: as §2

rice (Oryza sativa) = test: Test B flooded paddy test; conditions: Flood, scale 0 to 100
In short: as §2

[14] = test system: barnyardgrass (Echinochloa crus-galli); test: Test B flooded paddy test; conditions: Flood, scale 0 to 100
In short: as §2

[15] = 62 g ai/ha, scale 0 to 100 (0 no effect, 100 complete control)
[16] = 125 g ai/ha, scale 0 to 100 (0 no effect, 100 complete control)
[17] = 62 g ai/ha, scale 0 to 100, 0 no effect, 100 complete control

CCCOC(=O)c1nc(C2CC2)nc(N)c1Cl [Compound 75]
Blackgrass plant response rating ([1]; 62 g ai/ha): 50
Blackgrass plant response rating ([1]; 125 g ai/ha): 60
Oat, Wild plant response rating (wild oat (Avena fatua); 62 g ai/ha): 50
Oat, Wild plant response rating (wild oat (Avena fatua); 125 g ai/ha): 60
Cocklebur plant response rating [2, 15]: 70
Cocklebur plant response rating [2, 16]: 100
Plant response rating, Cocklebur [2, 17]: 90
Plant response rating, Cocklebur [2, 16]: 90
Wheat plant response rating [3, 15]: 50
Wheat plant response rating [3, 16]: 70
Plant response rating, Wheat [3, 17]: 30
Plant response rating, Wheat [3, 16]: 70
Lambsquarters plant response rating [4, 15]: 90
Lambsquarters plant response rating [4, 16]: 100
Plant response rating, Lambsquarters [4, 17]: 100
Plant response rating, Lambsquarters [4, 16]: 100
Morningglory plant response rating [5, 15]: 100
Morningglory plant response rating [5, 16]: 100
Plant response rating, Morningglory [5, 17]: 80
Plant response rating, Morningglory [5, 16]: 100
Pigweed plant response rating [6, 15]: 80
Pigweed plant response rating [6, 16]: 90
Plant response rating, Pigweed [6, 17]: 100
Plant response rating, Pigweed [6, 16]: 100
Crabgrass plant response rating [7, 15]: 70
Crabgrass plant response rating [7, 16]: 80
Plant response rating, Crabgrass [7, 17]: 80
Plant response rating, Crabgrass [7, 16]: 90
Foxtail, Giant plant response rating [8, 15]: 60
Foxtail, Giant plant response rating [8, 16]: 80
Plant response rating, Foxtail, Giant [8, 17]: 30
Plant response rating, Foxtail, Giant [8, 16]: 90
Surinam Grass plant response rating [9, 15]: 70
Surinam Grass plant response rating [9, 16]: 80
Plant response rating, Surinam Grass [9, 17]: 70
Plant response rating, Surinam Grass [9, 16]: 80
Barnyardgrass plant response rating [10, 15]: 80
Barnyardgrass plant response rating [10, 16]: 90
Plant response rating, Barnyardgrass [10, 17]: 60
Plant response rating, Barnyardgrass [10, 16]: 80
Corn plant response rating (corn (Zea mays); [15]): 60
Corn plant response rating (corn (Zea mays); [16]): 70
Plant response rating, Corn (corn (Zea mays); [17]): 50
Plant response rating, Corn (corn (Zea mays); [16]): 80
Velvetleaf plant response rating [11, 15]: 70
Velvetleaf plant response rating [11, 16]: 100
Plant response rating, Velvetleaf [11, 17]: 80
Plant response rating, Velvetleaf [11, 16]: 100
Plant response rating, Sedge, Umbrella ([12]; 125 g ai/ha): 0
Plant response rating, Sedge, Umbrella ([12]; 500 g ai/ha): 10
Plant response rating, Ducksalad ([13]; 125 g ai/ha): 0
Plant response rating, Ducksalad ([13]; 500 g ai/ha): 70
Plant response rating, Rice (rice (Oryza sativa); 125 g ai/ha): 0
Plant response rating, Rice (rice (Oryza sativa); 500 g ai/ha): 70
Plant response rating, Barnyardgrass ([14]; 125 g ai/ha): 0
Plant response rating, Barnyardgrass ([14]; 500 g ai/ha): 70
